Reference: patent US9527857B2, “HSPC-sparing treatments for RB-positive abnormal cellular proliferation” (G1 Therapeutics, Inc., priority 2013, dated 2016)
“Also recorded” adds a separate entry of the source.

Key:
[1] = system: A2058 cells (CDK4/6-independent, Rb-negative); assay: Cell cycle arrest (propidium iodide flow cytometry), A2058; format: cell-based; conditions: 300 nM, 24 hours
Description: (§1) To test the ability of CDK4/6 inhibitors to induce a clean G1-arrest, a cell based screening method was used consisting of two CDK4/6-dependent cell lines (tHS68 and WM2664; Rb-positive) and one CDK4/6-independent (A2058; Rb-negative) cell line. […] At the conclusion of the experiment, cells were harvested, fixed, and stained with propidium iodide (a DNA intercalator), which fluoresces strongly red (emission maximum 637 nm) when excited by 488 nm light. Samples were run on Dako Cyan flow cytometer and >10,000 events were collected for each sample. Data were analyzed using FlowJo 2.2 software developed by TreeStar, Inc.

[2] = system: ZR-75-1 (breast ductal carcinoma, Rb-positive); assay: Cellular proliferation assay (CellTiter-Glo), ZR-75-1; format: cell-based
Experimental: Cellular proliferation assays were conducted using the following cancer cell lines: MCF7 (breast adenocarcinoma—Rb-positive), ZR-75-1 (breast ductal carcinoma—Rb-positive), H69 (human small cell lung cancer—Rb-negative) cells, or A2058 (human metastatic melanoma cells—Rb-negative). These cells were seeded in Costar (Tewksbury, Mass.) […] 96 well tissue culture treated white walled/clear bottom plates. Cells were treated with the compounds of Table 1 as nine point dose response dilution series from 10 uM to 1 nM. Cells were exposed to compounds and then cell viability was determined after either four (H69) or six (MCF7, ZR75-1, A2058) days as indicated using the CellTiter-Glo® luminescent cell viability assay (CTG; Promega, Madison, Wis., United States of America) following the manufacturer's recommendations. Plates were read on BioTek (Winooski, Vt.) Syngergy2 multi-mode plate reader. The Relative Light Units (RLU) were plotted as a result of variable molar concentration and data was analyzed using Graphpad (LaJolla, Calif.) Prism 5 statistical software to determine the EC50 for each compound.

HSPCs (LKS+) = assay: Bone marrow HSPC proliferation by EdU incorporation and flow cytometry; format: in vivo; conditions: 150 mg/kg oral gavage, mice
Experimental: . JCNI 2012; 104(6):476-487 (FIG. 2A). […].
Mice were then sacrificed at the indicated times (0, 12, 24, 36, or 48 hours following compound administration), and bone marrow was harvested (n=3 mice per time point), as previously described (Johnson et al. J. Clin. Invest. (2010) 120(7), 2528-2536). Four hours before the bone marrow was harvested, mice were treated with 100 μg of EdU by intraperitoneal injection (Invitrogen). Bone marrow mononuclear cells were harvested and immunophenotyped using previously described methods and percent EdU positive cells were then determined (Johnson et al. J. Clin. Invest. (2010) 120(7), 2528-2536). In brief, HSPCs were identified by expression of lineage markers (Lin−), Sca1 (S+), and c-Kit (K+).
Four hours before animals were sacrificed and the bone marrow was harvested, mice were treated with 100 μg of EdU by intraperitoneal injection. Three mice per group were sacrificed at 12 hours and the remaining three animals per group were sacrificed at 24 hours. Results are shown in FIG. 5A as the ratio of EdU positive cells for treated animals at 12 or 24 hour time points compared to control.
Further experiments were completed with Compound T examining dose response and longer periods of compound treatment. […] […].
Both compounds were administered at 150 mg/kg by oral gavage. One hour prior to harvesting bone marrow, EdU was IP injected to label cycling cells. Bone marrow was harvested at 12, 24, 36, and 48 hours after compound treatment and the percentage of EdU positive HSPC cells was determined at each time point.

[3] = system: WM2664 cells (CDK4/6-dependent, Rb-positive); assay: Cell cycle arrest (propidium iodide flow cytometry), WM2664; format: cell-based; conditions: 300 nM, 24 hours
Description: as §1

[4] = system: Rb phosphorylation at Ser780 and Ser807/811 in tHS68 and WM2664; assay: Rb phosphorylation western blot, CDK4/6-dependent cell lines; format: cell-based; conditions: 300 nM; 4, 8, 16, 24 hours
Experimental: MAPK levels are shown as a control for protein levels. Following treatment, cells were harvested and analyzed for Rb-phosphorylation by western blot analysis.
The CDK4/6-cyclin D complex is essential for progression from G1 to the S-phase of the DNA cell cycle. This complex phosphorylates the retinoblastoma tumor suppressor protein (Rb). […] Samples were lysed and protein was assayed by western blot analysis. Rb phosphorylation was measured at two sites targeted by the CDK4/6-cyclin D complex, Ser780 and Ser807/811 using species specific antibodies.

[5] = Mouse pharmacokinetics (oral gavage / intravenous); format: in vivo, mice; conditions: plasma, 30 mg/kg, read-out: F (oral bioavailability)
Experimental: Blood samples were taken at 0, 0.25, 0.5, 1.0, 2.0, 4.0, and 8.0 hours post dosing and the plasma concentrations were determined by HPLC.

[6] = Metabolic stability in liver microsomes; format: in vitro ADME, human, dog, rat, monkey, and mouse; conditions: each of the species tested
Experimental: Human, mouse, and dog liver microsomes were purchased from Xenotech, and Sprague-Dawley rat liver microsomes were prepared by Absorption Systems. The reaction mixture comprising 0.5 mg/mL of liver microsomes, 100 mM of potassium phosphate, pH 7.4, 5 mM of magnesium chloride, and 1 uM of test compound was prepared. The test compound was added into the reaction mixture at a final concentration of 1 uM. An aliquot of the reaction mixture (without cofactor) was incubated in shaking water bath at 37 deg. C. for 3 minutes. The control compound, testosterone, was run simultaneously with the test compound in a separate reaction. The reaction was initiated by the addition of cofactor (NADPH), and the mixture was then incubated in a shaking water bath at 37 deg. C. Aliquots (100 μL) were withdrawn at 0, 10, 20, 30, and 60 minutes for the test compound and 0, 10, 30, and 60 minutes for testosterone. […] Test compound samples were analyzed using the Orbitrap high resolution mass spectrometer to quantify the disappearance of parent test compound and detect the appearance of metabolites. […] Half-lives were calculated using GraphPad software, fitting to a single-phase exponential decay equation.
When calculated half-life was longer than the duration of the experiment, the half-life was expressed as >the longest incubation time. The calculated half-life is also listed in parentheses. […]

Compound: CN1CCN(c2ccc(Nc3ncc4cc5n(c4n3)C3(CCCCC3)CNC5=O)nc2)CC1 [T]
- cell cycle distribution after treatment [1]: no effect; also recorded: does not cause a loss of the S-phase peak
- activity against ZR75-1 cells compared with PD0332991 (FIG. 25) [2]: more potent activity against ZR75-1 cells than PD0332991
- inhibition of cellular proliferation of ZR75-1 cells (FIGS. 25-28) [2]: significant inhibition of cellular proliferation
- EdU incorporation into HSPCs at 12 and 24 hours (FIG. 5A) (HSPCs (LKS+)): reduction in EdU incorporation at 12 hours which was starting to return to normal at 24 hours
- cell cycle distribution after treatment [3]: causes a loss of the S-phase peak
- Rb phosphorylation in CDK4/6-dependent cell lines (tHS68, WM2664) [4]: blocks Rb phosphorylation in Rb-dependent cell lines by 16 hours post exposure; also recorded: reduced Rb-phosphorylation starting 16 hours after treatment
- bioavailability [5]: 80%
- half-life in liver microsomes compared with PD0332991 [6]: shorter in each species
